Results: ChEMBL document CHEMBL1201862, “PubChem BioAssay data set” (2004)
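Exposure lasted 48 hours, with cells grown in 96-well plates and compounds tested at five concentrations. Here, GI50 denotes the concentration required for 50% inhibition of growth.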 Calls of active or inactive are those of the source. No stated cut-off is given here; in the data, active = GI50 up to about 1.1 µM and inactive = higher.

Key:
Test in all cases: NCI tumour cell line growth inhibition, 48 h
[1] = test system: SR
[2] = test system: IGROV-1
[3] = test system: U-251
[4] = test system: HL-60
[5] = test system: COLO 205
[6] = test system: M14
[7] = test system: RXF 393
[8] = test system: CCRF-CEM
[9] = test system: Malme-3M
[10] = test system: NCI-H23
[11] = test system: K562
[12] = test system: SF-268
[13] = test system: NCI-H460
[14] = test system: HT-29
[15] = test system: SF-539
[16] = test system: OVCAR-4
[17] = test system: Hs-578T
[18] = test system: PC-3
[19] = test system: MCF7

Row | Structure (SMILES) | GI50 [1] | GI50 [2] | GI50 [3] | GI50 [4] | GI50 [5] | GI50 [6] | GI50 [7] | GI50 [8] | GI50 [9] | GI50 [10] | GI50 [11] | GI50 [12] | GI50 [13] | GI50 [14] | GI50 [15] | GI50 [16] | GI50 [17] | GI50 [18] | GI50 [19]
1 | COC(=O)CCC1CCc2c(OC)ccc(OC)c2C1=O (stereo unspecified) | > 100 µM (inactive) | > 100 µM (inactive) | > 100 µM (inactive) | > 100 µM (inactive) | > 100 µM (inactive) | > 100 µM (inactive) | > 100 µM (inactive) | > 100 µM (inactive) | > 100 µM (inactive) | > 100 µM (inactive) | > 100 µM (inactive) | > 100 µM (inactive) | > 100 µM (inactive) | > 100 µM (inactive) | > 100 µM (inactive) | > 100 µM (inactive) | – | – | –
2 | CSC1CC2C(CC1(C)O)C2(C)C (stereo unspecified) | – | > 100 µM (inactive) | > 100 µM (inactive) | – | > 100 µM (inactive) | > 100 µM (inactive) | – | – | > 100 µM (inactive) | > 100 µM (inactive) | – | > 100 µM (inactive) | > 100 µM (inactive) | > 100 µM (inactive) | > 100 µM (inactive) | > 100 µM (inactive) | – | – | –
3 | O/N=C/[C@H]1COC2(CCCCC2)O1 | – | > 100 µM (inactive) | > 100 µM (inactive) | – | > 100 µM (inactive) | > 100 µM (inactive) | – | > 100 µM (inactive) | > 100 µM (inactive) | > 100 µM (inactive) | > 100 µM (inactive) | > 100 µM (inactive) | – | > 100 µM (inactive) | – | > 100 µM (inactive) | > 100 µM (inactive) | > 100 µM (inactive) | > 100 µM (inactive)
4 | Cc1nc2ccccc2c(=O)n1NC(=S)Nc1cccc(Cl)c1 | 31.8 µM (inactive) | > 100 µM (inactive) | > 100 µM (inactive) | > 100 µM (inactive) | > 100 µM (inactive) | > 100 µM (inactive) | > 100 µM (inactive) | > 100 µM (inactive) | > 100 µM (inactive) | > 100 µM (inactive) | > 100 µM (inactive) | > 100 µM (inactive) | > 100 µM (inactive) | > 100 µM (inactive) | > 100 µM (inactive) | > 100 µM (inactive) | – | – | –
5 | [N-]=[N+]=NC1C2CC3CC(C2)CC1C3 (stereo unspecified) | > 100 µM (inactive) | > 100 µM (inactive) | > 100 µM (inactive) | – | > 100 µM (inactive) | > 100 µM (inactive) | – | > 100 µM (inactive) | > 100 µM (inactive) | > 100 µM (inactive) | > 100 µM (inactive) | – | > 100 µM (inactive) | > 100 µM (inactive) | > 100 µM (inactive) | > 100 µM (inactive) | – | – | –
6 | O=C(Nc1ccc(S(=O)(=O)N[C@@H](C(=O)O)c2ccccc2)cc1)c1ccc(F)cc1 | – | > 100 µM (inactive) | > 100 µM (inactive) | – | > 100 µM (inactive) | > 100 µM (inactive) | > 100 µM (inactive) | > 100 µM (inactive) | > 100 µM (inactive) | > 100 µM (inactive) | > 100 µM (inactive) | > 100 µM (inactive) | > 100 µM (inactive) | > 100 µM (inactive) | > 100 µM (inactive) | > 100 µM (inactive) | – | – | –
7 | COc1cc([C@@H]2c3cc4c(cc3[C@@H](NC(=O)c3cccc([N+](=O)[O-])c3)C3COC(=O)[C@@H]32)OCO4)cc(OC)c1O (stereo partly specified) | – | 3.85 µM (inactive) | 0.166 µM (active) | 0.274 µM (active) | 4.66 µM (inactive) | 0.621 µM (active) | 2.34 µM (inactive) | 0.0376 µM (active) | 0.543 µM (active) | 0.189 µM (active) | 2.2 µM (inactive) | 0.552 µM (active) | < 0.01 µM (active) | 1.7 µM (inactive) | 0.294 µM (active) | 10.5 µM (inactive) | – | – | –
8 | O/N=C/c1cc2c(cc1Br)OCO2 | > 100 µM (inactive) | > 100 µM (inactive) | > 100 µM (inactive) | > 100 µM (inactive) | > 100 µM (inactive) | > 100 µM (inactive) | – | > 100 µM (inactive) | > 100 µM (inactive) | > 100 µM (inactive) | > 100 µM (inactive) | – | > 100 µM (inactive) | > 100 µM (inactive) | > 100 µM (inactive) | > 100 µM (inactive) | – | – | –
9 | Cc1ccccc1C(C#N)/C(=N/NC(N)=S)C(=O)Nc1c(C)cccc1C (stereo unspecified) | – | > 100 µM (inactive) | > 100 µM (inactive) | > 100 µM (inactive) | > 100 µM (inactive) | > 100 µM (inactive) | > 100 µM (inactive) | > 100 µM (inactive) | 83.8 µM (inactive) | > 100 µM (inactive) | – | > 100 µM (inactive) | > 100 µM (inactive) | > 100 µM (inactive) | – | > 100 µM (inactive) | – | – | –
10 | C[C@]12CCC(=O)C=C1CC[C@@H]1C2CC[C@@]2(C)C1CC[C@@H]2OC(=O)C12OC1CCC2=O (stereo partly specified) | 17.1 µM (inactive) | 10.8 µM (inactive) | 15.1 µM (inactive) | 6.9 µM (inactive) | 17.9 µM (inactive) | 18.5 µM (inactive) | 5.16 µM (inactive) | 12.2 µM (inactive) | 19.1 µM (inactive) | 18.8 µM (inactive) | 24.4 µM (inactive) | 20 µM (inactive) | 17.9 µM (inactive) | 18.9 µM (inactive) | 20.3 µM (inactive) | 21.6 µM (inactive) | – | – | –
11 | CC(c1ccccc1)N1CC(C)(c2ccccc2)N(O)C(c2ccccc2)C1C (stereo unspecified) | – | 7.45 µM (inactive) | 13.1 µM (inactive) | 3.52 µM (inactive) | 11.1 µM (inactive) | – | 4.41 µM (inactive) | 5.66 µM (inactive) | 18.8 µM (inactive) | 8.04 µM (inactive) | 7.28 µM (inactive) | 4.15 µM (inactive) | 7.29 µM (inactive) | 23.4 µM (inactive) | 5.73 µM (inactive) | – | – | – | –
12 | Clc1ccc(OCCSCCCCCCCCCCSCCOc2ccc(Cl)cc2)cc1 | – | > 100 µM (inactive) | > 100 µM (inactive) | > 100 µM (inactive) | > 100 µM (inactive) | – | > 100 µM (inactive) | > 100 µM (inactive) | > 100 µM (inactive) | > 100 µM (inactive) | > 100 µM (inactive) | > 100 µM (inactive) | > 100 µM (inactive) | > 100 µM (inactive) | > 100 µM (inactive) | – | – | – | –
13 | CN(C)c1ccc(-c2[nH]c(=O)c3ccccc3[n+]2C)cc1 | 49.4 µM (inactive) | > 100 µM (inactive) | > 100 µM (inactive) | 83.8 µM (inactive) | 62.2 µM (inactive) | 41.3 µM (inactive) | > 100 µM (inactive) | > 100 µM (inactive) | 47.6 µM (inactive) | 60 µM (inactive) | 58.6 µM (inactive) | > 100 µM (inactive) | > 100 µM (inactive) | 63.4 µM (inactive) | > 100 µM (inactive) | 60.1 µM (inactive) | > 100 µM (inactive) | – | 46.7 µM (inactive)
14 | CN1CCCC2[C@@H]3CCC4=C(O)C(=O)CC[C@]4(C)C3CC[C@@]21C (stereo partly specified) | – | > 100 µM (inactive) | > 100 µM (inactive) | > 100 µM (inactive) | > 100 µM (inactive) | > 100 µM (inactive) | > 100 µM (inactive) | > 100 µM (inactive) | > 100 µM (inactive) | > 100 µM (inactive) | > 100 µM (inactive) | > 100 µM (inactive) | > 100 µM (inactive) | > 100 µM (inactive) | > 100 µM (inactive) | > 100 µM (inactive) | – | – | –
15 | COC(=O)C(C(=O)C(=O)Nc1cccc(O)c1)c1nc2ccc(Cl)cc2nc1O (stereo unspecified) | – | > 100 µM (inactive) | > 100 µM (inactive) | > 100 µM (inactive) | > 100 µM (inactive) | > 100 µM (inactive) | 74.3 µM (inactive) | > 100 µM (inactive) | > 100 µM (inactive) | > 100 µM (inactive) | > 100 µM (inactive) | > 100 µM (inactive) | > 100 µM (inactive) | > 100 µM (inactive) | > 100 µM (inactive) | > 100 µM (inactive) | – | – | –
16 | CCOC(=O)N1CCC2C(=C(C)C(C)C3=C2C(=O)c2ccccc2C3=O)C1 (stereo unspecified) | 3.8 µM (inactive) | > 10 µM (inactive) | – | 2.07 µM (inactive) | 3.33 µM (inactive) | 4.73 µM (inactive) | > 10 µM (inactive) | 9.44 µM (inactive) | 1.82 µM (inactive) | 2.76 µM (inactive) | 3.08 µM (inactive) | > 10 µM (inactive) | – | 4.07 µM (inactive) | – | > 10 µM (inactive) | – | 4.4 µM (inactive) | 4.21 µM (inactive)
17 | O=S(=O)(O)C1=C2Sc3ccccc3N=C2c2ccccc2C1 | 3.14 µM (inactive) | 14.3 µM (inactive) | 12.5 µM (inactive) | 3.76 µM (inactive) | 16.5 µM (inactive) | 12.7 µM (inactive) | 19.5 µM (inactive) | 3.43 µM (inactive) | 15.8 µM (inactive) | 16.4 µM (inactive) | 10.5 µM (inactive) | 14.1 µM (inactive) | 19.5 µM (inactive) | 20.3 µM (inactive) | 11.9 µM (inactive) | 16.8 µM (inactive) | – | – | –
18 | c1ccc(C2[C@@H]3CCCc4ccccc4C3=NN2c2ccccc2)cc1 (stereo partly specified) | 91.6 µM (inactive) | > 100 µM (inactive) | > 100 µM (inactive) | 80 µM (inactive) | > 100 µM (inactive) | – | 92.3 µM (inactive) | 87.7 µM (inactive) | > 100 µM (inactive) | 61 µM (inactive) | 32.7 µM (inactive) | > 100 µM (inactive) | > 100 µM (inactive) | 61.7 µM (inactive) | – | 49.5 µM (inactive) | – | – | –
